Experiments:
Rattus norvegicus = conditions: oral
Mus musculus = conditions: oral
[1] = short-term, duration: 1 weeks, diet, M, Wistar, Body Weight: ~32% weight loss
[2] = short-term, duration: 28 days, F, Sprague-Dawley, Body Weight: Decreased body weight gain (21%)
[3] = short-term, duration: 28 days, F, Sprague-Dawley, Hematological: Decreased MCH and MCHC + Immunotoxicological: Decreased phagocytosis by fixed tissue macrophages in the liver
[4] = short-term, duration: 28 days, F, Sprague-Dawley, Hepatic: Single cell necrosis
[5] = acute, duration: 1 days, gavage, F, Body Weight: 12% decreased body weight 30 days post-exposure + Endocrine: 2-fold increase in T3 and 4-fold increase in T4 levels 30 days …
[6] = developmental, duration: 10 days, gavage, F, Body Weight: No weight gain at 6.4 mg/kg/day and weight loss at 12.8 mg/kg/day (net change of -2.4)
[7] = developmental, duration: 10 days, gavage, F, Developmental: 18-22% decreases in fetal weight per litter at ?1 mg/kg/day / decreases in live fetuses per litter at 12.8 mg/kg/day (4.6 …
[8] = short-term, duration: 4 weeks, F, B6C3F1, Immunotoxicological: Decreases in splenic T-cells, T-cell subsets, and macrophages

O=C(O)C(F)(F)C(F)(F)C(F)(F)C(F)(F)C(F)(F)C(F)(F)C(F)(F)C(F)(F)C(F)(F)F [Perfluorodecanoic acid]
LOAEL (Rattus norvegicus; acute, duration: 1 days, gavage, M, Wistar, Body Weight: 8% weight loss was observed 10-days post-exposure): 50 mg/kg-day
NOAEL (Rattus norvegicus; acute, duration: 1 days, gavage, M, Wistar, Neurological: No alteration in performance on novel object recognition test): 50 mg/kg-day
LOAEL (Rattus norvegicus; [1]): 9.5 mg/kg-day
NOAEL (Rattus norvegicus; [1]): 4.7 mg/kg-day
NOAEL (Rattus norvegicus; short-term, duration: 1 weeks, diet, M, Wistar, Hepatic: Increases in liver weight at ?2.4 mg/kg/day / increases in hepatic cholesterol at 9.5 mg/kg/day): 9.5 mg/kg-day
LOAEL (Rattus norvegicus; [2]): 1 mg/kg-day
NOAEL (Rattus norvegicus; [2]): 0.5 mg/kg-day
LOAEL (Rattus norvegicus; [3]): 0.25 mg/kg-day
NOAEL (Rattus norvegicus; [3]): 0.125 mg/kg-day
LOAEL (Rattus norvegicus; [4]): 0.5 mg/kg-day
NOAEL (Rattus norvegicus; [4]): 0.25 mg/kg-day
LOAEL (Mus musculus; [5]): 80 mg/kg-day
NOAEL (Mus musculus; [5]): 40 mg/kg-day
NOAEL (Mus musculus; acute, duration: 1 days, gavage, F, Cardiovascular: No histological alterations in the heart 30 days post-exposure / decreased relative heart weight at 80 mg/kg/day + Hepatic…): 80 mg/kg-day
LOAEL (Mus musculus; acute, duration: 1 days, gavage, F, Death: LD50 in 30-day observation period): 120 mg/kg-day
NOAEL (Mus musculus; acute, duration: 1 days, gavage, F, Hepatic: Increase in hepatic lipids and liver weight 2 days post-exposure at 40 mg/kg/day): 160 mg/kg-day
LOAEL (Mus musculus; acute, duration: 1 days, gavage, F, Immunotoxicological: 28% decrease in relative spleen weight at 80 mg/kg/day / atrophy and lymphoid depletion in thymus and spleen at 160 mg…): 160 mg/kg-day
NOAEL (Mus musculus; developmental, duration: 1 days, gavage, M, CD1, Developmental: No alteration in spontaneous activity or habituation at 2-4 months of age): 10.8 mg/kg-day
LOAEL (Mus musculus; [6]): 6.4 mg/kg-day
NOAEL (Mus musculus; [6]): 3 mg/kg-day
LOAEL (Mus musculus; developmental, duration: 10 days, gavage, F, Body Weight: No weight gain at 6.4 mg/kg/day and weight loss at 12.8 mg/kg/day (net change of -2.4) + Developmental: 18-22% decreases in …): 12.8 mg/kg-day
LOAEL (Mus musculus; [7]): 1 mg/kg-day
NOAEL (Mus musculus; [7]): 0.3 mg/kg-day
NOAEL (Mus musculus; short-term, duration: 4 weeks, F, B6C3F1): 5 mg/kg-day
LOAEL (Mus musculus; [8]): 1.25 mg/kg-day
NOAEL (Mus musculus; [8]): 0.625 mg/kg-day
LOAEL (Mus musculus; short-term, duration: 10 days, diet, M, Body Weight: 33% weight loss): 78 mg/kg-day
NOAEL (Mus musculus; short-term, duration: 10 days, diet, M, Hepatic: 36% increase in liver weight): 78 mg/kg-day

From EPA's ToxValDB 9.5
